Measured values published in patent US20260125346A1, “Isoquinolinone Derivatives and 4H-Quinolizinone Derivatives and Pharmaceutical Compositions Thereof for the Treatment of Disease” (BeOne Medicines I GmbH, priority 2023, published 2026).
pIC50: −log10 of the molar value.

Experiments:
[1] = molecular target: PI3Kα (p110/p85) kinase (wild type, "WT") (Homo sapiens, UniProt P42336); assay: PI3Kα (p110/p85) kinase ADP-Glo Assay; assay type: biochemical; settings: 25 uM ATP
Description: PI3Kα (p110/p85) kinase ADP-Glo Assay. Certain compounds disclosed herein were tested for inhibition of PI3Kα (p110/p85) kinase (wild type, “WT”) in assays based on the ADP-Glo™ Kinase Assay methodology. The assays were carried out in 384-well white plates in a reaction mixture containing PI3Kα (p110/p85) kinase, 25 µM ATP, 5.35 µg/mL PI(4,5)P2:PS Lipid Kinase Substrate and […] compound in buffer containing 50 mM HEPES pH7.5, 50 mM NaCl, 3 mM MgCl2, 0.0025% BSA and 2 mM DTT. PI3Kα (p110/p85) kinase was incubated with Lipid Kinase Substrate and compound for 30 minutes at room temperature and the reaction was initiated by the addition of ATP. After reaction at room temperature for 120 minutes, ADP-Glo™ reagents were added to terminate the kinase reaction and deplete the remaining ATP according to the manufacture's instruction (Promega Corporation). After incubation at room temperature for 1 hour, Kinase Detection Reagent (prepared by reconstituting the lyophilized Kinase Detection Substrate with Kinase Detection Buffer of the kit) was added to convert the ADP to ATP and to allow for the newly synthesized ATP to be measured using a luciferase/luciferin reaction. After incubation at room temperature for 0.5 hour, chemiluminescence signals were recorded on a PHERAstar FSX plate reader (BMG Labtech). The chemiluminescence generated in this assay correlates to the amount of ADP generated in the kinase assay, indicating kinase activity. […] The IC50 for each compound was derived from fitting the data to the four-parameter logistic equation by Dotmatics.

[2] = molecular target: PI3Kα (p110[H1047R]/p85) kinase (Homo sapiens, UniProt P42336, H1047R); assay: PI3Kα (p110[H1047R]/p85) kinase ADP-Glo Assay; assay type: biochemical; settings: 25 uM ATP; for selectivity: WT/H1047R: ADP-Glo Assay IC50 ratio
Chain of PI3Kα (p110[H1047R]/p85) kinase (P42336 whole entry H1047R): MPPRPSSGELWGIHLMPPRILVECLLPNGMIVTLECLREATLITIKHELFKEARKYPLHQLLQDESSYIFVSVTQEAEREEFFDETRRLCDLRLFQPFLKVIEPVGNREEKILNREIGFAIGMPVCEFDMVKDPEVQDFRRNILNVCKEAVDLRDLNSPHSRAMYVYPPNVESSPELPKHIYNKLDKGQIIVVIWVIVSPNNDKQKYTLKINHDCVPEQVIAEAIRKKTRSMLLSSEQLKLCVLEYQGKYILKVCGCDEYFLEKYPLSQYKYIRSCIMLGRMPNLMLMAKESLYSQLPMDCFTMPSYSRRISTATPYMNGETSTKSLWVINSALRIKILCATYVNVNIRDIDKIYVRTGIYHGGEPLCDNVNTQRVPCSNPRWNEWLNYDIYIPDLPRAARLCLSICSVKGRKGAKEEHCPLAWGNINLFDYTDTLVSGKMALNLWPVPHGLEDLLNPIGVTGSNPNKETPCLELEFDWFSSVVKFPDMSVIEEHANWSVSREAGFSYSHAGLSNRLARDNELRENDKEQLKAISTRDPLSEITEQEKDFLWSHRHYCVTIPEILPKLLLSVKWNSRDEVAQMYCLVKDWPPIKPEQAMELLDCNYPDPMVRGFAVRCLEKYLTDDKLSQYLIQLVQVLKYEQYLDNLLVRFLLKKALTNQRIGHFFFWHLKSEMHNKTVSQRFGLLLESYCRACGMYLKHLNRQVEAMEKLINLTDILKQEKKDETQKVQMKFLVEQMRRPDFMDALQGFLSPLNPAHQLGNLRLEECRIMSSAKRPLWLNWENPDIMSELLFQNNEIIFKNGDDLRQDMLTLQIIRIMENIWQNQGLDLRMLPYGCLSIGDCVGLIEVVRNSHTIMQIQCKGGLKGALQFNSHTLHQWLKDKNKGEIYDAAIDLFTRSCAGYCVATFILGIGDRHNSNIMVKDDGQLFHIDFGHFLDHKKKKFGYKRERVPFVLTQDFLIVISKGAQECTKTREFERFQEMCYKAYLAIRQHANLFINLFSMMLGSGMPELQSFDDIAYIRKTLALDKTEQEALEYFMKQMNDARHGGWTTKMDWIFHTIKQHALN
Chain of PI3Kα (p110[H1047R]/p85) kinase (P27986 whole entry partner): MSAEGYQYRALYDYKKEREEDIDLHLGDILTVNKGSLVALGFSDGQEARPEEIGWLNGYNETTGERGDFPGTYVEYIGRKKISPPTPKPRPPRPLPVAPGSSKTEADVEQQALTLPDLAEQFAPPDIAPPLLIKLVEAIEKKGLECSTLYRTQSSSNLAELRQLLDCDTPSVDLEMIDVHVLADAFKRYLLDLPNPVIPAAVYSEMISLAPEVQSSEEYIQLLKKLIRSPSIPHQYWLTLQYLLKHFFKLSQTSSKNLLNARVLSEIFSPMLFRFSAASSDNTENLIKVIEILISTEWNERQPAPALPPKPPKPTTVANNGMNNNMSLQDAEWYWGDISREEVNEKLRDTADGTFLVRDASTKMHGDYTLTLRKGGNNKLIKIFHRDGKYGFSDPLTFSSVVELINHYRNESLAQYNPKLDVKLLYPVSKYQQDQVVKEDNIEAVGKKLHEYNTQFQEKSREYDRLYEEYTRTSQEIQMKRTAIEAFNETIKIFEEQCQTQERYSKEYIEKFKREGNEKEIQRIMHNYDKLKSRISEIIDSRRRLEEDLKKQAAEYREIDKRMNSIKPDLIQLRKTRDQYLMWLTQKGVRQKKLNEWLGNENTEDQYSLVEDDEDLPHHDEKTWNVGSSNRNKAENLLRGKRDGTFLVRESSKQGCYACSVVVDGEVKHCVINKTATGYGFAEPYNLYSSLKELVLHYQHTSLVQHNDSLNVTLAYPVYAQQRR
Description: PI3Kα (p110[H1047R]/p85) kinase ADP-Glo Assay. Certain compounds disclosed herein were tested for inhibition of PI3Kα (p110[H1047R]/p85) kinase in assays based on the ADP-Glo™ Kinase Assay methodology. The assays were carried out in 384-well white plates in a reaction mixture containing PI3Kα (p110[H1047R]/p85) kinase, 25 µM ATP, 5.35 µg/ml PI(4,5)P2:PS Lipid Kinase Substrate and […] compound in buffer containing 50 mM HEPES pH7.5, 50 mM NaCl, 3 mM MgCl2, 0.0025% BSA and 2 mM DTT. PI3Kα (p110[H1047R]/p85) kinase was incubated with Lipid Kinase Substrate and compound for 30 minutes at room temperature and the reaction was initiated by the addition of ATP.
After reaction at room temperature for 120 minutes, ADP-Glo™ reagents were added to terminate the kinase reaction and deplete the remaining ATP according to the manufacture's instruction (Promega Corporation). After incubation at room temperature for 1 hour, Kinase Detection Reagent (prepared by reconstituting the lyophilized Kinase Detection Substrate with Kinase Detection Buffer of the kit) was added to convert the ADP to ATP and to allow for the newly synthesized ATP to be measured using a luciferase/luciferin reaction. After incubation at room temperature for 0.5 hour, chemiluminescence signals were recorded on a PHERAstar FSX plate reader (BMG Labtech). The chemiluminescence generated in this assay correlates to the amount of ADP generated in the kinase assay, indicating kinase activity. […] The IC50 for each compound was derived from fitting the data to the four-parameter logistic equation by Dotmatics.

[3] = system: PI3Kα H1047R mutated cell line T-47D; assay: Phospho-AKT (Ser473) Inhibition Assay (HTRF), T-47D; assay type: cell-based; settings: for pIC50: Homo sapiens, T47D, T-47D, 1 hour treatment, read-out: p-AKT Inhibition assay (S473) IC50 T-47D; for Selectivity: SK-BR-3/T-47D (p-AKT): p-AKT (S473) IC50 ratio
Description: (§1) Cell Culture Maintenance. The T-47D (ATCC, HTB-133) cell line was obtained from the American Type Culture Collection. Cells were maintained in RPMI1640 medium (Gibco, REF #22400105) supplemented with 10% Fetal Bovine Serum (Gibco, REF #10091148). Cultures were maintained in a humidified incubator at 37° C. under 5% CO2/95% air.
(§2) Phospho-AKT Inhibition Assay. HTRF Phospho-AKT (Ser473) detection kit (Cisbio, REF #64AKSPEH) was used in phosphor-AKT inhibition assay. For compound screening, PI3Kα H1047R mutated cell line T-47D and WT cell line SK-BR-3 cells were seeded at a density of 3×10^4 cells per well in 96 well plate (Costar, REF #3599) in 95 μL of assay medium (MEM medium (Gibco, REF #12561-056) with 1×NEAA (Gibco, REF #11140-050), 1 mM sodium pyruvate (Gibco, REF #11360-070), and 1 g/ml human insulin (Topscience, REF #T8221)), overnight. Compounds dissolved in 10 mM stock solutions in DMSO were serially diluted 1:3 in DMSO to generate an 11-point dilution series and plated using an INTEGRA ASSIST PLUS pipetting robot. A 20× intermediate compound dilution plate in RPMI1640 medium (200 M starting compound concentration in 2% DMSO) was then prepared. Five μL of intermediate serially diluted compounds were added to the cell plate to final concentrations ranging from […] to 0.1 nM in 0.1% DMSO. 0.1% DMSO alone was used to establish the maximum signal and GDC0077 at final concentration of 10 μM was used as a reference compound for minimum signal. After 1 hour treatment, removed medium and added 50 μL of supplemented lysis buffer (1×) immediately. Incubated for at least 30 minutes at room temperature under shaking. Transferred 16 μL of cell lysate from the 96-well cell-culture plate to a 384-white detection plate (PerkinElmer, Optiplate 384, 6007299). Added 4 μL of premixed antibody solutions prepared in the detection buffer. Incubated 4 hours at room temperature in dark. The plates were read on PHERAstar FSX Microplate reader (BMG LABTECH, Inc.) using standard HTRF settings.
(§3) Relative IC50 values were determined using luminescence units by calculating percent inhibition with respect to the in-plate “MIN” (GDC0077 reference control) and “MAX” (DMSO) controls. The data were analyzed using a 4-parameter nonlinear logistic equation (four-parameter logistic concentration-response curve): Y=bottom+[(top−bottom)/1+(X/IC50) slope] • where Y=% inhibition, X=concentration of inhibitor, bottom=minimum value of y attained by curve-fit, top=maximum value of y attained by curve-fit and slope=steepness of curve at the IC50.

WT cell line SK-BR-3 = assay: Phospho-AKT (Ser473) Inhibition Assay (HTRF), SK-BR-3; assay type: cell-based; settings: Homo sapiens; SK-BR-3, 1 hour treatment; read-out: p-AKT Inhibition assay (S473) IC50 SK-BR-3
Description: The SK-BR-3 (ATCC, HTB-30) cell line was obtained from the American Type Culture Collection. Cells were maintained in McCoy' 5A medium (Gibco, REF #16600108) supplemented with 10% Fetal Bovine Serum. Cultures were maintained in a humidified incubator at 37° C. under 5% CO2/95% air.
as §2, §3

[4] = system: PI3Kα H1047R mutated cell line T-47D cells; assay: Cell Proliferation Assay (CellTiter-Glo), T-47D; assay type: cell-based; settings: Homo sapiens, T47D, 72 h; T-47D, 3 days treatment
Description: as §1
Cell Proliferation Assay. PI3Kα H1047R mutated cell line T-47D cells and WT cell line SK-BR-3 were seeded at a density of 3×10^3 cells per well in 96 well plate (Xinyou Biotechnology, 062096) in 95 μL of culture medium, overnight. Compounds dissolved in 10 mM stock solutions in DMSO were serially diluted 1:3 in DMSO to generate a 9-point dilution series and plated using an INTEGRA ASSIST Plus pipetting robot. A 20× intermediate compound dilution plate in RPMI1640 medium (200 M starting compound concentration in 2% DMSO) was then prepared. Five μL of intermediate serially diluted compounds were added to the cell plate to final concentrations ranging from […] to 1 nM in 0.1% DMSO. 0.1% DMSO alone was used to establish the maximum signal and medium without cells was for minimum signal. After 3 days treatment, equilibrated the plate and its contents at room temperature for approximately 30 minutes. Added 30 μL CellTiter-Glo® Reagent (Promega, REF #G7571) to each well. Then mixed contents for 5 min on plate shaker to induce cell lysis. Incubated at room temperature for 10 minutes to stabilize luminescent signal. The plates were read on PHERAstar FSX Microplate reader using standard luminescence settings.
Relative IC50 values were determined using luminescence units by calculating percent inhibition with respect to the in-plate “MIN” (medium only) and “MAX” (0.1% DMSO) controls. The data were analyzed using a 4-parameter nonlinear logistic equation (four-parameter logistic concentration-response curve): Y=bottom+[(top−bottom)/1+(X/IC50) slope] • where Y=% inhibition, X=concentration of inhibitor, bottom=minimum value of y attained by curve-fit, top=maximum value of y attained by curve-fit and slope=steepness of curve at the IC50.

Chain of PI3Kα (p110/p85) kinase (wild type, "WT") (P42336 whole entry): as the sequence (P42336 whole entry H1047R) above, with R1047H counted along it
Chain of PI3Kα (p110/p85) kinase (wild type, "WT") (P27986 whole entry partner): as the sequence (P27986 whole entry partner) above

Compound | pIC50 [1] | pIC50 [2] | selectivity: WT/H1047R [2] | pIC50 [3] | pIC50 (WT cell line SK-BR-3) | pIC50 [4] | Selectivity: SK-BR-3/T-47D (p-AKT) [3]
Cc1cc(C(C)Nc2csc3ccccc23)c2cc(-c3ccccc3)n(C)c(=O)c2c1 (centres unmarked) [Example 93, 5-(1-(benzo[b]thiophen-3-ylamino)ethyl)-2,7-dimethyl-3-phenylisoquinolin-1(2H)-one] | < 4.00 | < 4.00 |  |  |  |  | 
CC#Cc1cc2c(C(C)Nc3ccccc3C(=O)O)cc(C)cc2c(=O)n1C (centres unmarked) [Example 27, 2-((1-(2,7-dimethyl-1-oxo-3-(prop-1-yn-1-yl)-1,2-dihydroisoquinolin-5-yl)ethyl)amino)benzoic acid] | 4.22 | 6.12 | 79 | 6.61 | < 5.00 |  | >21
Cc1cc(C(C)Nc2ccccc2C(=O)O)c2cc(-c3ccccc3C(N)=O)n(C)c(=O)c2c1 (centres unmarked) [Example 90, 2-((1-(3-(2-carbamoylphenyl)-2,7-dimethyl-1-oxo-1,2-dihydroisoquinolin-5-yl)ethyl)amino)benzoic acid] | 4.05 | 5.71 | 46.0 |  |  |  | 
Cc1cc(C(C)Nc2cnccc2C(=O)O)c2cc(-c3ccc(F)cc3)n(C)c(=O)c2c1 (centres unmarked) [Example 54, 3-((1-(3-(4-fluorophenyl)-2,7-dimethyl-1-oxo-1,2-dihydroisoquinolin-5-yl)ethyl)amino)isonicotinic acid] | < 4.00 | 5.03 | >10 |  |  |  | 
Cc1cc(C(C)Nc2ccccc2C(=O)O)c2cc(C(=O)Nc3ccccc3)n(C)c(=O)c2c1 (centres unmarked) [Example 42, 2-((1-(2,7-dimethyl-1-oxo-3-(phenylcarbamoyl)-1,2-dihydroisoquinolin-5-yl)ethyl)amino)benzoic acid] | 4.14 | 6.01 | 73.8 | 6.53 |  | 5.45 | 
Cc1cc(C(C)Nc2c(C(=O)O)nn3c2CCC3)c2cc(-c3ccccc3)n(C)c(=O)c2c1 (centres unmarked) [Example 83, 3-((1-(2,7-dimethyl-1-oxo-3-phenyl-1,2-dihydroisoquinolin-5-yl)ethyl)amino)-5,6-dihydro-4H-pyrrolo[1,2-b]pyrazole-2-carboxylic acid] | 4.26 | 6.31 | 114.5 | 5.17 | < 5.00 |  | >1.48
Cc1cc([C@H](C)Nc2ccccc2C(=O)O)c2cc(-c3ccc(F)cc3)n(CC#N)c(=O)c2c1 [Example 65, (S)-2-((1-(2-(cyanomethyl)-3-(4-fluorophenyl)-7-methyl-1-oxo-1,2-dihydroisoquinolin-5-yl)ethyl)amino)benzoic acid] | < 4.00 | < 4.00 |  |  |  |  | 
Cc1cc([C@H](C)Nc2ccccc2C(=O)O)c2cc(-c3cnc(C(C)(C)O)nc3)n(C)c(=O)c2c1 [Example 68, (S)-2-((1-(3-(2-(2-hydroxypropan-2-yl)pyrimidin-5-yl)-2,7-dimethyl-1-oxo-1,2-dihydroisoquinolin-5-yl)ethyl)amino)benzoic acid] | 4.46 | 4.66 | 1.6 |  |  |  | 

Stronger by pIC50 [1], values ahead:

pIC50 [1] | pIC50 [2] | selectivity: WT/H1047R [2] | pIC50 [3] | pIC50 (WT cell line SK-BR-3) | pIC50 [4] | Compound | Selectivity: SK-BR-3/T-47D (p-AKT) [3]
5.13 | 6.36 | 17.0 |  |  |  | Cc1cc([C@@H](C)Nc2ccccc2C(=O)O)c2cc(-c3ccc(C(C)(C)O)cc3)n(C)c(=O)c2c1 [Example 98, (R)-2-((1-(3-(4-(2-hydroxypropan-2-yl)phenyl)-2,7-dimethyl-1-oxo-1,2-dihydroisoquinolin-5-yl)ethyl)amino)benzoic acid] | 
4.57 | 5.96 | 24.3 | < 5.00 | < 5.00 |  | Cc1cc(C(C)Nc2ccccc2C(=O)O)c2cc(-c3cnc(O)nc3)n(C)c(=O)c2c1 (centres unmarked) [Example 85, 2-((1-(3-(2-hydroxypyrimidin-5-yl)-2,7-dimethyl-1-oxo-1,2-dihydroisoquinolin-5-yl)ethyl)amino)benzoic acid] | 
4.62 | 4.79 | 1.5 |  |  |  | COc1ncc(-c2cc3c([C@H](C)Nc4ccccc4C(=O)O)cc(C)cc3c(=O)n2C)cc1F [Example 60, (S)-2-((1-(3-(5-fluoro-6-methoxypyridin-3-yl)-2,7-dimethyl-1-oxo-1,2-dihydroisoquinolin-5-yl)ethyl)amino)benzoic acid] | 
